This is an account of results in ChEMBL document CHEMBL4613301, “Molecular Docking Studies of Royleanone Diterpenoids from Plectranthus spp. as P-Glycoprotein Inhibitors” (ACS Med Chem Lett, 2020).

Format in all cases: cell-based
The target of series [1] is T1, ATP-dependent translocase ABCB1 (Homo sapiens, UniProt P08183). Briefly: Inhibition of P-gp in human NCI-H460/R cells assessed as mean fluorescence intensity of Rhodamine 123 at 20 uM (reference value: 16.96).
Series [2] concerns the target T1, ATP-dependent translocase ABCB1. The series is described as follows: Ratio of inhibition of P-gp in human NCI-H460/R cells assessed as mean fluorescence intensity at 20 uM relative to control.
The target is the same in series [3]. Briefly: Inhibition of P-gp in human NCI-H460/R cells assessed as fluorescence activity ratio at 20 uM relative to control.

T1 sequence (P08183 whole entry): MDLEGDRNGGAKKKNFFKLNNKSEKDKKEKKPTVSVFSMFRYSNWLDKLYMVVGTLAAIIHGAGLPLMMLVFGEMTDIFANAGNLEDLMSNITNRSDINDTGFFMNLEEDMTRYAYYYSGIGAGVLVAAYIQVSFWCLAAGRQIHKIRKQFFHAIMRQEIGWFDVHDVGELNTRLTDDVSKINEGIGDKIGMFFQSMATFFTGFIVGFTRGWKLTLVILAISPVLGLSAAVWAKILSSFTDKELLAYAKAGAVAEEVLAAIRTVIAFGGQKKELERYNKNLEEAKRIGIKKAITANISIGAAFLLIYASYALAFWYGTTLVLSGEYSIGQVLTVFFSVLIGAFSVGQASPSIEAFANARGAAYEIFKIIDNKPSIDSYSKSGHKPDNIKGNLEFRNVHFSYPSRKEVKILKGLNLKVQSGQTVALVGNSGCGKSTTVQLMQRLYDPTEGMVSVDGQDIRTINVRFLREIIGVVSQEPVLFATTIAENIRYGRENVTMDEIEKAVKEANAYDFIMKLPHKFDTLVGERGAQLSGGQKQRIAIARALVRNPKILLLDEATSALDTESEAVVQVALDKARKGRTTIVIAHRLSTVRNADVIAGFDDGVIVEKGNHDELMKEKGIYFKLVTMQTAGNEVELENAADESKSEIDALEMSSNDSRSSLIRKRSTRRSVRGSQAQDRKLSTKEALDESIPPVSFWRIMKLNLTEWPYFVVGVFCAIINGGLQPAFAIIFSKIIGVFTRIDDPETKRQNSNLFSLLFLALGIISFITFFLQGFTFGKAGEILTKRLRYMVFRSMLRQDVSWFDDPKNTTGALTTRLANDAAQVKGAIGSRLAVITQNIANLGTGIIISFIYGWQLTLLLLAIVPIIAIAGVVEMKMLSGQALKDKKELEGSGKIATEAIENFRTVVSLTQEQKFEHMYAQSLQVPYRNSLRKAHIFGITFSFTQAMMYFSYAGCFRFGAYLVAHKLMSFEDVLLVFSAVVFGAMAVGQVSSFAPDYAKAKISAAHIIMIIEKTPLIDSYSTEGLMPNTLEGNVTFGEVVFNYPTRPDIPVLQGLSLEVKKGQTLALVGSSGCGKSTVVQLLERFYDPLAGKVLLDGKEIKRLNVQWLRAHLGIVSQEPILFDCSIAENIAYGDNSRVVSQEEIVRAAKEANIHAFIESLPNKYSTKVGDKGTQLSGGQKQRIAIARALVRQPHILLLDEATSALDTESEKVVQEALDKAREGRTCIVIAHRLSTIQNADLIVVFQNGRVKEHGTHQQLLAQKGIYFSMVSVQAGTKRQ

For `CC(=O)O[C@H]1C2=C(C(=O)C(OC(=O)c3ccc(Cl)cc3)=C(C(C)C)C2=O)[C@@]2(C)CCCC(C)(C)[C@@H]2[C@@H]1OC(=O)c1ccc(Cl)cc1`, in series [1], the FI is given as 28.97. For the same molecule, the Ratio in series [2] is 21.6; in series [3], 1.71.
Consider `CC(=O)O[C@H]1C2=C(C(=O)C(OC(=O)c3ccccc3)=C(C(C)C)C2=O)[C@@]2(C)CCCC(C)(C)[C@@H]2[C@@H]1O`, for which the FI in series [1] was 35.54. The figures for the Ratio in series [2] and in series [3] were 26.5 and 2.1, respectively.
For `COc1ccc(CCN(C)CCC[C@](C#N)(c2ccc(OC)c(OC)c2)C(C)C)cc1OC` [DEXVERAPAMIL], the FI in series [1] is 36.07. The Ratio in series [2] is recorded as 26.9; in series [3], 2.13.
